Several values for one entry are separate records, joined by “and”; a condition that tells them apart may be missing. Equal entries are not always repeated. Inconclusive results and toxic doses are left out. No stated cut-off is given here; in the data, active means T/C of 150% or more; inactive means T/C below 125%.
Tested on: L1210 leukemia ip in BDF1 mice, survival T/C
Experiment: NCI In Vivo Anticancer Drug Screen. Data for tumor model L1210 Leukemia (intraperitoneal) in B6D2F1 (BDF1) mice
Conditions: endpoint: mean survival time, higher = longer survival
How it was run: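 Transplantable tumor model; survival measured in treated vs vehicle control mice. Value = treated/control.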

[1] = dose: 100.0 mg/kg/injection, schedule: Q04DX003 (ip), vehicle: saline
[2] = dose: 100.0 mg/kg/injection, schedule: Q01DX001 (ip), vehicle: saline
[3] = dose: 200.0 mg/kg/injection, schedule: Q01DX001 (ip), vehicle: saline
[4] = dose: 400.0 mg/kg/injection, schedule: Q01DX001 (ip), vehicle: saline

Measured: T/C

NC(=O)c1nc2ccccc2nc1C(N)=O
inactive: dose: 100.0 mg/kg/injection, schedule: Q01DX009 (ip), vehicle: Klucel (hydroxypropylcellulose) (HPC) 92 % of control | dose: 100.0 mg/kg/injection, schedule: Q04DX003 (ip), vehicle: Klucel (hydroxypropylcellulose) (HPC) 92 % of control | dose: 200.0 mg/kg/injection, schedule: Q01DX009 (ip), vehicle: Klucel (hydroxypropylcellulose) (HPC) 92 % of control | dose: 200.0 mg/kg/injection, schedule: Q04DX003 (ip), vehicle: Klucel (hydroxypropylcellulose) (HPC) 92 % of control | dose: 400.0 mg/kg/injection, schedule: Q01DX009 (ip), vehicle: Klucel (hydroxypropylcellulose) (HPC) 96 % of control | dose: 400.0 mg/kg/injection, schedule: Q04DX003 (ip), vehicle: Klucel (hydroxypropylcellulose) (HPC) 90 % of control

Cc1ccc(S(=O)(=O)N2CC(O)C(O)C2CO)cc1 (stereo not drawn)
inactive: dose: 50.0 mg/kg/injection, schedule: Q01DX005 (ip), vehicle: saline 96 % of control | dose: 100.0 mg/kg/injection, schedule: Q01DX005 (ip), vehicle: saline 104 % of control | dose: 200.0 mg/kg/injection, schedule: Q01DX005 (ip), vehicle: saline 102 % of control

O/N=C\c1cc[n+](CC[n+]2ccc(/C=N/O)cc2)cc1
inactive: dose: 100.0 mg/kg/injection, schedule: Q04DX002 (ip), vehicle: other 112 % of control

CN1CCC=Cc2ccccc21
inactive: dose: 100.0 mg/kg/injection, schedule: Q01DX009 (ip), vehicle: saline 97 % of control | [1] 92 % of control | dose: 200.0 mg/kg/injection, schedule: Q04DX003 (ip), vehicle: saline 95 % of control | dose: 400.0 mg/kg/injection, schedule: Q04DX003 (ip), vehicle: saline 90 % of control

CCOC(=O)C(=CNc1cc(N)nc(SC)n1)C(=O)OCC
inactive: dose: 100.0 mg/kg/injection, schedule: Q04DX002 (ip), vehicle: Klucel (hydroxypropylcellulose) (HPC) 114 % of control | dose: 200.0 mg/kg/injection, schedule: Q04DX002 (ip), vehicle: Klucel (hydroxypropylcellulose) (HPC) 103 % of control | dose: 400.0 mg/kg/injection, schedule: Q04DX002 (ip), vehicle: Klucel (hydroxypropylcellulose) (HPC) 100 % of control

Cc1c(Cl)cccc1NC(=O)c1ccc([N+](=O)[O-])cc1
inactive: dose: 100.0 mg/kg/injection, schedule: Q01DX009 (ip), vehicle: saline with Tween-80 91 % of control | dose: 200.0 mg/kg/injection, schedule: Q01DX009 (ip), vehicle: saline with Tween-80 89 % of control | dose: 400.0 mg/kg/injection, schedule: Q01DX009 (ip), vehicle: saline with Tween-80 89 % of control

C=CCc1ccc(OCCOCCNC2C(C)CCCC2(C)C)c(OC)c1 (stereo not drawn)
inactive: dose: 5.0 mg/kg/injection, schedule: Q01DX009 (ip), vehicle: Klucel (hydroxypropylcellulose) (HPC) 101 % of control | dose: 5.0 mg/kg/injection, schedule: Q04DX003 (ip), vehicle: Klucel (hydroxypropylcellulose) (HPC) 96 % of control | dose: 10.0 mg/kg/injection, schedule: Q01DX009 (ip), vehicle: Klucel (hydroxypropylcellulose) (HPC) 100 % of control | dose: 10.0 mg/kg/injection, schedule: Q04DX003 (ip), vehicle: Klucel (hydroxypropylcellulose) (HPC) 90 % of control | dose: 20.0 mg/kg/injection, schedule: Q01DX009 (ip), vehicle: Klucel (hydroxypropylcellulose) (HPC) 97 % of control | dose: 20.0 mg/kg/injection, schedule: Q04DX003 (ip), vehicle: Klucel (hydroxypropylcellulose) (HPC) 96 % of control

CCOC(=O)C1=NN(c2ccccc2)C(=O)C1N=Nc1ccc(S(=O)(=O)Nc2onc(C)c2C)cc1 (stereo not drawn)
inactive: [2] 104 % of control | [3] 98 % of control | [4] 107 % of control

Cc1ccc(S(=O)(=O)Oc2ccccc2NS(=O)(=O)c2ccccc2)cc1
inactive: [2] 101 % of control | dose: 100.0 mg/kg/injection, schedule: Q04DX003 (ip), vehicle: acetone 96 % of control | [3] 95 % of control | dose: 200.0 mg/kg/injection, schedule: Q04DX003 (ip), vehicle: acetone 92 % of control | [4] 95 % of control | dose: 400.0 mg/kg/injection, schedule: Q04DX003 (ip), vehicle: acetone 87 % of control

CCN(CC)c1ccc(N=Cc2ccccc2S(=O)(=O)O)cc1
inactive: dose: 6.25 mg/kg/injection, schedule: Q01DX009 (ip), vehicle: saline 95 % of control | dose: 6.25 mg/kg/injection, schedule: Q04DX003 (ip), vehicle: saline sonified 97 % of control | dose: 12.5 mg/kg/injection, schedule: Q01DX009 (ip), vehicle: saline 96 % of control | dose: 12.5 mg/kg/injection, schedule: Q04DX003 (ip), vehicle: saline sonified 103 % of control | dose: 25.0 mg/kg/injection, schedule: Q01DX009 (ip), vehicle: saline 93 % of control | dose: 25.0 mg/kg/injection, schedule: Q04DX003 (ip), vehicle: saline sonified 110 % of control

CCC/C=C/CCN1CC1
inactive: dose: 20.0 mg/kg/injection, schedule: Q01DX001 (ip), vehicle: saline 97 % of control | dose: 40.0 mg/kg/injection, schedule: Q01DX001 (ip), vehicle: saline 97 % of control | [2] 86 % of control

NC(Cc1c[nH]c2ccc(F)cc12)C(=O)O (stereo not drawn)
inactive: dose: 100.0 mg/kg/injection, schedule: Q01DX001 (ip), vehicle: other 95 % of control | dose: 100.0 mg/kg/injection, schedule: Q04DX003 (ip), vehicle: other 119 % of control | dose: 200.0 mg/kg/injection, schedule: Q01DX001 (ip), vehicle: other 95 % of control | dose: 200.0 mg/kg/injection, schedule: Q04DX003 (ip), vehicle: other 102 % of control | dose: 400.0 mg/kg/injection, schedule: Q01DX001 (ip), vehicle: other 89 % of control

CC(C)(C)C1CCC(N=C(N)CSS(=O)(=O)O)CC1 (stereo not drawn)
inactive: dose: 12.5 mg/kg/injection, schedule: Q04DX002 (ip), vehicle: Klucel (hydroxypropylcellulose) (HPC) 97 % of control | dose: 25.0 mg/kg/injection, schedule: Q04DX002 (ip), vehicle: Klucel (hydroxypropylcellulose) (HPC) 95 % of control

COc1cc2[nH]c(C)c(CCN3CCN(c4ccccc4)CC3)c2cc1OC
inactive: dose: 3.12 mg/kg/injection, schedule: Q01DX009 (ip), vehicle: Klucel (hydroxypropylcellulose) (HPC) 104 % of control | dose: 6.25 mg/kg/injection, schedule: Q01DX009 (ip), vehicle: Klucel (hydroxypropylcellulose) (HPC) 108 % of control | dose: 12.5 mg/kg/injection, schedule: Q01DX009 (ip), vehicle: Klucel (hydroxypropylcellulose) (HPC) 96 % of control | dose: 25.0 mg/kg/injection, schedule: Q01DX009 (ip), vehicle: Klucel (hydroxypropylcellulose) (HPC) 105 % of control | dose: 25.0 mg/kg/injection, schedule: Q04DX003 (ip), vehicle: Klucel (hydroxypropylcellulose) (HPC) 106 % of control | dose: 50.0 mg/kg/injection, schedule: Q04DX003 (ip), vehicle: Klucel (hydroxypropylcellulose) (HPC) 106 % of control

c1ccc2c(c1)sc1cc3ccncc3cc12
inactive: dose: 75.0 mg/kg/injection, schedule: Q01DX001 (ip), vehicle: other 110 % of control | dose: 150.0 mg/kg/injection, schedule: Q01DX001 (ip), vehicle: other 101 % of control | dose: 300.0 mg/kg/injection, schedule: Q01DX001 (ip), vehicle: other 107 % of control

C[P+]1(CCc2ccc(Cl)cc2)CC=CC1
inactive: dose: 25.0 mg/kg/injection, schedule: Q04DX003 (ip), vehicle: saline 93 % of control | dose: 50.0 mg/kg/injection, schedule: Q04DX003 (ip), vehicle: saline 103 % of control | [1] 96 % of control and 88 % of control

— PubChem BioAssay AID248 (DTP/NCI, 2004)
